Laboratory results from patent publication US7507792B2, “MDA-7 proteins and methods of use thereof” (The Trustees of Columbia University In The City of New York, priority 1993, dated 2009).
“Also recorded” adds a separate entry of the source.

What was measured:
HL-525 cells = experiment: OKM1 reactivity (immunofluorescence); type: cell-based, human; conditions: TPA 3 nM, RA 1 μM or Vit D3 400 nM, percent OKM1 positive cells
Procedure: (§1) HL-60 cells were originally provided by Dr. R. C. Gallo (National Cancer Institute, Bethesda, Md.) (Collins et al., 1978; Huberman & Callaham, 1979). HL-60 cells designated HL-525 were derived by cloning HL-60 cells after subculturing 102 times in the presence of increasing concentrations (up to 3 μM) of TPA at 5- to 8-day intervals (Homma et al., 1986; Mitchell et al., 1986). […] Prior to the experiments described in this study, the HL-525 cells were subcultured more than 20 times in the absence of TPA. Cells were grown in 100-mm tissue culture dishes in RPMI 1640 medium supplemented with 20% fetal bovine serum, penicillin (100 units/ml) and streptomycin (100 μg/ml) (Grand Island Biological Co., NY) at 37° C. in an atmosphere of 5% CO2 in air in a humidified incubator. The 1,25-(OH)2D3(Vit D3) and TPA were dissolved in a final concentration of 0.01% DMSO, and all-trans retinoic acid (RA) was dissolved in 0.1% DMSO in culture medium. […] Control cultures were treated with DMSO at a final concentration of 0.1% in culture medium. For experiments designed to test the effect of DMSO on HL-60 and HL-525 cells, DMSO was added to tissue culture medium at a final concentration of 1%. Stock solutions of CHX (10 mg/ml) were prepared in culture medium. CHX was added at a final concentration of 10 μg/ml. To examine a requirement for protein synthesis on mda-6 gene expression, HL-60 or HL-525 cells were seeded into 150 mm Petri dishes (5×10^5 cells/ml) in 30 ml of medium. CHX was added to a final concentration of 10 μg/ml 15 min prior to the addition of TPA to 3 nM. Cells were harvested at various times after addition of TPA for subsequent RNA isolation and analysis.
(§2) Cell counts were determined by hemocytometer chamber counting. Immunofluorescence tests for reactivity with the OKM1 antibody (Ortho Pharmaceutical Corp., Raritan, N.J.) were performed as previously described (Murao et al., 1983).

HL-60 cells = experiment: OKM1 reactivity (immunofluorescence); type: cell-based, human; conditions: TPA 3 nM, RA 1 μM or Vit D3 400 nM, percent OKM1 positive cells
Procedure: as §1, §2

mda-6 (WAF1/CIP1/SDI1) = type: cell-based, human; conditions: HL-525; TPA 3 nM, Vit D3 400 nM, RA 1 μM; 1 to 12 h test period
Procedure: as §1
RNA was purified by centrifugation through a CsC1 cushion as described by Chirgwin et al. (1979). Ten μg of RNA was denatured with glyoxal/DMSO, electrophoresed on 1.0% agarose gels, transferred to nylon membranes, hybridized to a ^32P-labeled mda-6 probe (Jiang and Fisher, 1993) and then after stripping the membrane hybridized to a ^32P-labeled rat GAPDH probe (Fort et al., 1985), as described previously (Reddy et at., 1991; Su et al., 1991; Jiang et al., 1992). Following hybridization, the filters were washed and exposed for autoradiography (Reddy et al., 1991; Su et al., 1991; Jiang et al., 1992). mda-6 and GAPDH gene expression were also determined by reverse transcription-polymerase chain reaction (RT-PCR) as described (Adollahi et al. 1991; Lin et al., 1994). Total cytoplasmic RNA was treated with 0.5 units DNase (Boehringer-Mannheim Biochemicals)/μg RNA in 15% glycerol, 10 mM Tris, pH 7.5, 2.5 mM MgCl2, 0.1 mM EDTA, 80 mM KC1, 1 mM CaCl2 and 1 unit/ml RNasin (Promega) at 30° C. for 10 min. RNA was extracted with phenol-chloroform, precipitated with sodium acetate/ethanol and RNA pellets were resuspended in diethylpyrocarbonate-treated H2O. One μg of total RNA was reverse transcribed with 200 units of murine leukemia virus reverse transcriptase (Bethesda Research Laboratories) in 20 μl containing 1 mM deoxyribonucleotide triphosphates, 4 mM MgCl2, 10 mM Tris, pH 8.3, 50 mM KC1, 0.001% gelatin and 0.2 μg oligo-dT primer. Samples were diluted to 100 μl with buffer containing 0.2 mM deoxyribonucleotide triphosphates, 2 mM MgCl2, 10 mM Tris, pH 8.3, 50 mM KC1 and 0.001% gelatin. […]

[1] = tested on: H0-1 human melanoma cell line; experiment: 96-h growth suppression (cell number by Coulter Counter); type: cell-based; conditions: Table 2; H0-1 cells; degree of initial 96 hr growth suppression versus untreated control
Procedure: FIG. 1A-B Effect of continuous exposure to various growth and differentiation modulating agents on the 96-h growth of the human melanoma cell line, H0-1. Cells were seeded at 5×10^4/35-mm tissue culture plate and 24 h later the medium was changed with the indicated compounds. Cell numbers were determined by Coulter Counter after 96-h growth. Further details can be found in Materials and Methods.
The H0-1 cell line is a melanotic melanoma derived from a person and was used between passage 100 and 125 (6,8,13). H0-1 cells were kindly provided by Dr. Beppino C. Giovanella, Stehlin Foundation for Cancer Research, Houston, Tex. Cultures were grown at 37° C. in a 95% air 5% CO2-humidified incubator in Dulbecco's modified Eagle's medium (DMEM) supplemented with 10% fetal bovine serum (DMEM-10) (Hyclone, Logan, Utah). H0-1 cells were maintained in the logarithmic stage of growth by subculturing (1:5 or 1:10) prior to confluency approximately every 4 to 5 days. […] Total cell numbers were determined after days 4, 7, 14, and 21, using a ZM Coulter Counter, and viable cell numbers were determined by trypan blue dye exclusion (6). […] Increases in cell number (two or more population doublings) after removal of the inducing agent(s) was considered reversible growth suppression. […] Conditioned medium was collected from treated cultures, contaminating cells were removed by centrifugation at 1000 rpm/10 min., and conditioned medium was stored at 4° C. until assayed for gene modulatory activity. Control conditioned medium was obtained as experimental conditioned medium from cells receiving only a medium change 24 hours after plating in the absence of test compound(s) and growth for 72 hours in DMEM-10.

H0-1 cells = experiment: Northern blotting analysis of steady-state mRNA levels; type: cell-based, human; conditions: FIG. 1 concentrations
Procedure: Steady-state levels of specific mRNAs were determined by Northern blotting analysis of total RNA probed with appropriate ^32P-labeled gene probes as described previously (14-16). RNAs were analyzed from cells treated with inducer for 24 hours, treated for 24 hours with inducer followed by growth for 72 hours in the absence of inducer, or treated continuously for 96 hours with the inducer. The concentration of inducing compounds used were the same as those used for growth studies. The effect of conditioned medium on gene expression changes was determined by treating H0-1 cells for 24 hours with a 1:2 dilution of conditioned medium (equal volumes of conditioned medium and DMEM supplemented with 10% fetal bovine serum (DMEM-10) or for 96 hours with a 1:4 dilution of conditioned medium (1 vol. of conditioned medium to 3 vol. of DMEM-10). The probes used in the present study were specific for β-actin (17), γ-actin (17), c-jun (18), c-myc (19), fibronectin (20), gro/MGSA (21), HLA Class I antigen (22), HLA Class II antigen (HLA-DRβ) (22), α5 integrin (23), β1 integrin (24), ISG-15 (25), ISG-54 (25), jun-B (26), and tenascin (27). Northern blots were also probed with a ^32P-labeled GAPDH gene (15) to verify similar mRNA expression under the various experimental conditions. Following hybridization, the filters were washed and exposed for autoradiography.

mda-4 = mda-4 expression (Northern blotting); type: cell-based, human; conditions: H0-1; 96 hours; doses of FIG. 15 legend
Procedure: (§3) The mass excision of the library was performed using ExAssist helper phage as described above. The SOLR strain of Escherichia coli and cDNA phagemids were mixed at 37° C. for 15 min and plated onto LB plates containing ampicillin and IPTG/X-gal. White colonies were chosen at random, isolated and grown in LB medium. Plasmid minireps and restriction enzyme digestions were performed to confirm the presence of inserts. The inserts were isolated and used as robes for Northern blotting analysis (5,25). […] Radiolabeled probes were generated by random oligonucleotide priming (25). Prehybridization, hybridization, posthybridization washes, and autoradiography were performed as described (5,18,25).

mda-5 = mda-5 expression (Northern blotting); type: cell-based, human; conditions: H0-1; 96 hours; doses of FIG. 15 legend
Procedure: as §3

mda-6 = mda-6 expression (Northern blotting); type: cell-based, human; conditions: H0-1; 96 hours; doses of FIG. 15 legend
Procedure: as §3
Total cytoplasmic RNA was isolated and Northern blotting hybridization was performed as described (Reddy et al., 1991; Su et al., 1991; Jiang et al., 1992). Ten μg of RNA was denatured with glyoxal/DMSO, electrophoresed on 1.0% agarose gels, transferred to nylon membranes and hybridized to a ^32P-labeled p53 probe (Baker et al., 1990). The nylon membrane was stripped and hybridized to a ^32P-labeled mda-6 probe (Jiang and Fisher, 1993) and then after a second stripping the membrane was hybridized to a ^32P-labeled rat GAPDH probe (Fort et al., 1985), as described previously (Reddy et al., 1991; Su et al., 1991; Jiang et al., 1992). Following hybridization, the filters were washed and exposed for autoradiography (Reddy et al., 1991; Su et al., 1991; Jiang et al., 1992). mda-6 and GAPDH gene expression were also determined by reverse transcription-polymerase chain reaction (RT-PCR) as described (Adollahi et al., 1991; Lin et al., 1994; Jiang et al., 1994b). Total cytoplasmic RNA was treated with 0.5 units DNase (Boehringer-Mannheim Biochemicals)/μg RNA in 15% glycerol, 10 mM Tris, pH 7.5, 2.5 mM MgCl2, 0.1 mM EDTA, 80 mM KCl, 1 mM CaCl2 and 1 unit/ml RNasin (Promega) at 30° C. for 10 min. RNA was extracted with phenol-chloroform, precipitated with sodium acetate/ethanol and RNA pellets were resuspended in diethylpyrocarbonate-treated H2O. One μg of total RNA was reverse transcribed with 200 units of murine leukemia virus reverse transcriptase (Bethesda Research Laboratories) in 20 μl containing 1 mM deoxyribonucleotide triphosphates, 4 mM MgCl2, 10 mM Tris, pH 8.3, 50 mM KCl, 0.001% gelatin and 0.2 μg oligo-dT primer. Samples were adjusted to 100 μl with buffer containing 0.2 mM deoxyribonucleotide triphosphates, 2 mM MgCl2, 10 mM Tris, pH 8.3, 50 mM KCl and 0.001% gelatin. Fifty pmol of each primer, 1.5 units Taq DNA polymerase (Perkin-Elmer Cetus) were added and samples were covered with mineral oil, heated at 95° C. for 5 min and subjected to 25 cycles of PCR in a Perkin-Elmer Thermal Cycler using 1 min denaturation at 94° C., 2 min annealing at 55° C. and 3 min polymerization at 72° C. After extraction with chloroform, 20 μl of products were electrophoresed, blotted onto nylon filters and hybridized with an mda-6 or GAPDH specific probe. The mda-6 primers were 5′ to 3′ […] (SEQ ID NO:26) and […] (SEQ ID NO:27)(corresponding to nt 1527 to 1546) (GenBank accession number U09579); and the GAPDH primers were 5′ to 3′ […] (SEQ ID NO:28)and […] (SEQ ID NO:29)(corresponding to nt 1070 to 1053) (Tokunaga et al., 1987).

mda-7 = mda-7 expression (Northern blotting, RT-PCR); type: cell-based, human; conditions: H0-1; 96 hours; doses of FIG. 15 legend
Procedure: as §3

mda-8 = mda-8 expression (Northern blotting); type: cell-based, human; conditions: H0-1; 96 hours; doses of FIG. 15 legend
Procedure: as §3

mda-9 = mda-9 expression (Northern blotting); type: cell-based, human; conditions: H0-1; 96 hours; doses of FIG. 15 legend
Procedure: as §3

Row | Compound | OKM1 reactivity, Days of induction 4 (HL-525 cells) [%] | OKM1 reactivity, Days of induction 6 (HL-525 cells) [%] | OKM1 reactivity, Days of induction 4 (HL-60 cells) [%] | OKM1 reactivity, Days of induction 6 (HL-60 cells) [%] | time of treatment at which mda-6 expression is induced (mda-6 (WAF1/CIP1/SDI1)) [h] | Growth Suppression (reversible) [1] | HLA Class I antigen gene expression (H0-1 cells; 96 h) | HLA Class II antigen gene (HLA-DRβ) expression (H0-1 cells; 96 h) | fibronectin expression (H0-1 cells; 96 h) | induction of gro/MGSA gene expression (H0-1 cells; 96 h) | tenascin expression (H0-1 cells; 96 h) | β1 integrin expression (H0-1 cells; 96 h) | c-jun and jun-B expression (H0-1 cells; 96 hours) | c-myc expression (H0-1 cells; 96 hours) | mda-4 expression (mda-4) | mda-5 expression (mda-5) | mda-6 expression (mda-6) | mda-7 expression (mda-7) | mda-8 expression (mda-8) | mda-9 expression (mda-9)
1 | C=C1/C(=C\C=C2/CCC[C@]3(C)[C@@H]([C@H](C)CCCC(C)(C)O)CC[C@@H]23)C[C@@H](O)C[C@@H]1O [Vit D3, 1,25-(OH)2D3] | 84 | 80 | 88 | 95 | ≤ 2 |  |  |  |  |  |  |  |  |  |  |  |  |  |  | 
2 | IFN-γ: Recombinant human immune interferon |  |  |  |  |  | 2+ (2+ = ~40% reduction in growth in comparison with untreated control cultures) | enhanced HLA Class I antigen expression | enhanced expression | most effective single agents | did not induce gro/MGSA expression | enhanced tenascin expression | upregulation | increase | increased c-myc expression | Increased expression | Enhanced expression; also recorded: induced | no significant or reduced alteration in expression | No induction in mda-7 expression; also recorded: does not result in significant mda-7 expression | enhanced mda-8 expression; also recorded: increased mda-8 expression | No change in mda-9 expression
